# According to patent US20250280821A1, “PERFUSION AND METABOLIC RESTORATION OF ORGANS” (Bexorg, Inc., priority 2024, published 2025):
# System: tissue of the dorsomedial prefrontal cortex (dmPFC) of the brain 110
# Test: Raman spectroscopy of brain tissue during ex-vivo perfusion with rapamycin in the perfusate
# Assay type: in vitro ADME, human
# Conditions: ex-vivo perfused brain
# Source text: As previously discussed, the perfusion system 100 also includes a Raman spectroscopy probe 172 that is coupled to or positioned near the brain housing 102 for performing Raman spectroscopy on the tissue of the brain 110 in real-time during perfusion of the brain 110. Once the brain 110 is fluidly coupled to the organ line 144 and is positioned inside the brain housing 102, the Raman spectroscopy probe 172 is positioned on the surface of the brain 110 and can be operated periodically throughout the perfusion process to perform Raman spectroscopy on the tissue of the brain 110 in real-time as the brain is perfused. […]
# The data generated by the Raman spectroscopy probe 172 can be used to determine whether the pharmaceutical compound is capable of crossing the blood-brain barrier. The pharmaceutical compound can be determined as capable of crossing the blood-brain barrier in response to detecting that one or more chemical compounds corresponding to the pharmaceutical compound are present in the tissue of the brain 110 using the Raman spectroscopy probe 172. In addition, the percentage of the pharmaceutical compound taken up and metabolized by the brain 110 can be determined based on the concentration of one or more chemical compounds corresponding to the pharmaceutical compound that is detected in the tissue of the brain 110 by the Raman spectroscopy probe 172. […]
smiles,measurement,setting,value
CO[C@H]1C[C@@H]2CC[C@@H](C)[C@@](O)(O2)C(=O)C(=O)N2CCCC[C@H]2C(=O)O[C@H]([C@H](C)C[C@@H]2CC[C@@H](O)[C@H](OC)C2)CC(=O)[C@H](C)/C=C(\C)[C@@H](O)[C@@H](OC)C(=O)[C@H](C)C[C@H](C)/C=C/C=C/C=C/1C [rapamycin],concentration of rapamycin present in the brain,Raman spectroscopy of dmPFC tissue over time (FIG. 6),continually increased until a stable concentration 604 was reached
same,ability to cross the blood-brain barrier of the brain,"rapamycin added to perfusate by syringe pump, Raman spectroscopy of dmPFC tissue (FIG. 6)",able to cross the blood-brain barrier
